Assay results from PubChem BioAssay (NCI).
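The compound was tested at five concentrations on cells cultured in 96-well plates, with a 48-hour exposure period. GI50 = concentration required for 50% inhibition of growth. At the TGI there is no net growth.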

Experiments:
Assay in all cases: DTP human tumour cell line panel, 48 h
[1] = system: ACHN renal
[2] = system: HCT-15 colon
[3] = system: OVCAR-3 ovarian
[4] = system: OVCAR-4 ovarian
[5] = system: SK-MEL-5 melanoma
[6] = system: TK-10 renal
[7] = system: U251 CNS
[8] = system: UACC-257 melanoma
[9] = system: MDA-MB-231 breast

| Compound | TGI [1] [µM] | TGI [2] [µM] | TGI [3] | TGI [4] [µM] | TGI [5] [µM] | TGI [6] [µM] | TGI [7] [µM] | TGI [8] [µM] | TGI [9] [µM] | GI50 [1] | GI50 [2] | GI50 [9] | GI50 [3] | GI50 [4] | GI50 [5] | GI50 [7] | GI50 [6] [µM] | GI50 [8] [µM] |
| --- | --- | --- | --- | --- | --- | --- | --- | --- | --- | --- | --- | --- | --- | --- | --- | --- | --- | --- |
| O=C(CC(=O)c1ccccc1)C(=O)NC12CC3CC(CC(C3)C1)C2 | > 100 | > 54.3 | > 100 µM | > 100 | > 100 | > 100 | > 100 | > 100 |  |  |  |  |  |  |  |  |  |  |
| NS(=O)(=O)c1ccc(NC(=O)c2cccc3c(Nc4ccc(S(N)(=O)=O)cc4)c4ccccc4nc23)cc1 | > 100 | > 100 | 35.2 µM | 55.6 | > 100 | > 100 | > 100 | > 100 |  |  |  |  |  |  |  |  |  |  |
| O=S(=O)(N/N=C/c1ccc(Cl)cc1Cl)c1ccccc1 | > 100 | > 100 | > 100 µM | > 100 | > 100 | > 100 | > 100 | > 100 |  |  |  |  |  |  |  |  |  |  |
| COC(=O)c1nc(N)nc(C(=O)OC)c1C(=O)c1ccccc1 | > 100 | > 100 | > 100 µM |  | > 100 | > 100 | > 100 | > 100 |  |  |  |  |  |  |  |  |  |  |
| CCOC(=O)/C=C1\Oc2ccccc2C1(C)O (stereo not given) | > 100 | > 100 | > 100 µM | > 100 | > 100 | > 100 | > 100 | > 100 |  |  |  |  |  |  |  |  |  |  |
| COc1ccc(OC)c(/C=N/N=C2\C(=O)Nc3c(Cl)cc(Cl)cc32)c1 | > 100 | > 100 | > 100 µM | > 100 | > 100 | > 100 | > 100 | > 100 | > 100 |  |  |  |  |  |  |  |  |  |
| COc1ccc(C=C2C(=O)NC(=O)NC2=O)cc1OCc1ccccc1 |  |  | 39.3 µg/mL |  |  |  |  |  |  | 36.9 µg/mL | 30.8 µg/mL | 31.4 µg/mL | 17 µg/mL | 35.6 µg/mL | 49 µg/mL | 31.2 µg/mL |  |  |
| CC(=O)O[C@H]1CC[C@@]2(C)C(=C/C(=N\[N+](=O)[O-])[C@H]3C4CCC([C@H](C)CCCC(C)C)[C@@]4(C)CCC32)C1 (stereo not given in full) | > 100 | > 100 | > 100 µM | > 100 | > 100 | > 100 |  | > 100 |  |  |  |  |  |  |  |  |  |  |
| Cc1cn(Cc2ccccc2CCl)c(=O)n(Cc2ccccc2CCl)c1=O | 3.06 | 4.43 | 3.65 µM | 4.83 | 2.93 | 6.53 | 3.1 | 4.86 | 3.57 | 1.66 µM | 1.96 µM | 1.86 µM | 1.85 µM | 1.98 µM | 1.56 µM | 1.57 µM | 2.92 | 2.25 |
| CCOC(=O)C1Oc2ccc([N+](=O)[O-])cc2C1(C)O (stereo not given) | > 100 | > 100 | > 100 µM | > 100 | > 100 | > 100 | > 100 | > 100 |  |  |  |  |  |  |  |  |  |  |
| Nc1ccc(C2=Nc3ccccc3SC(c3ccccc3O)C2)cc1 (stereo not given) | > 100 | > 100 | > 100 µM | > 100 | > 100 | > 100 | > 100 | > 100 |  |  |  |  |  |  |  |  |  |  |
| [O-][n+]1c2cc(CN3CCOCC3)c(CN3CCOCC3)cc2[n+]([O-])c2c(O)cccc21 | 26.3 | 8.14 | 13 µM | 9.81 | > 37.9 | > 42 | 7.09 | 16.3 |  |  |  |  |  |  |  |  |  |  |
